According to ChEMBL document CHEMBL5614402, “Discovery of novel pyrazolo[1,5-a]pyrimidine derivatives as potent reversal agents against ABCB1-mediated multidrug resistance” (Eur J Med Chem, 2024):
The source made the active and inactive calls. The calls are words filed in the database; no cut-off is given here.

Experiments:
[1] = tested on: NCI/ADR-RES; assay: Induction of apoptosis in human MCF7ADR cells assessed as necrotic cells at 10 uM by Annexin V-FITC and propidium iodide staining based flow cytometry analysis (reference value: 3.14%); type: functional
[2] = target: T1, Tubulin (Homo sapiens) (UniProt P68371+Q9H4B7+P0DPH7+P68366+Q13509+Q71U36+P04350+Q3ZCM7+P07437+P68363+Q9BQE3+Q6PEY2+Q13885+Q9BVA1+Q9BUF5); assay: Inhibition of tubulin depolymerization in human MCF7ADR cells assessed as change in microtubule morphology at 10 uM incubated for 72 hrs; type: cell-based
[3] = tested on: NCI/ADR-RES; assay: Synergistic antiproliferative activity against human MCF7ADR cells assessed as combination index at 10 uM in presence of PTX; type: functional
[4] = tested on: NCI/ADR-RES; assay: Reversal of paclitaxel resistance in human MCF7ADR cells assessed as reversal fold by measuring ratio of paclitaxel IC50 to paclitaxel IC50 in presence of test compound at 10 uM incubated for 72 hrs by MTT assay; type: functional
[5] = target: T2, ATP-dependent translocase ABCB1 (Homo sapiens, UniProt P08183); assay: Binding affinity to ABCB1 (unknown origin) assessed as reduction in protein hydrolysis at 10 to 100 uM incubated for 1 hr followed by alkaline protease addition and measured after 15 mins by Western blotting analysis; settings: 1.25 h, dose 10-100 µM, time 75 min
T2 sequence (P08183 whole entry): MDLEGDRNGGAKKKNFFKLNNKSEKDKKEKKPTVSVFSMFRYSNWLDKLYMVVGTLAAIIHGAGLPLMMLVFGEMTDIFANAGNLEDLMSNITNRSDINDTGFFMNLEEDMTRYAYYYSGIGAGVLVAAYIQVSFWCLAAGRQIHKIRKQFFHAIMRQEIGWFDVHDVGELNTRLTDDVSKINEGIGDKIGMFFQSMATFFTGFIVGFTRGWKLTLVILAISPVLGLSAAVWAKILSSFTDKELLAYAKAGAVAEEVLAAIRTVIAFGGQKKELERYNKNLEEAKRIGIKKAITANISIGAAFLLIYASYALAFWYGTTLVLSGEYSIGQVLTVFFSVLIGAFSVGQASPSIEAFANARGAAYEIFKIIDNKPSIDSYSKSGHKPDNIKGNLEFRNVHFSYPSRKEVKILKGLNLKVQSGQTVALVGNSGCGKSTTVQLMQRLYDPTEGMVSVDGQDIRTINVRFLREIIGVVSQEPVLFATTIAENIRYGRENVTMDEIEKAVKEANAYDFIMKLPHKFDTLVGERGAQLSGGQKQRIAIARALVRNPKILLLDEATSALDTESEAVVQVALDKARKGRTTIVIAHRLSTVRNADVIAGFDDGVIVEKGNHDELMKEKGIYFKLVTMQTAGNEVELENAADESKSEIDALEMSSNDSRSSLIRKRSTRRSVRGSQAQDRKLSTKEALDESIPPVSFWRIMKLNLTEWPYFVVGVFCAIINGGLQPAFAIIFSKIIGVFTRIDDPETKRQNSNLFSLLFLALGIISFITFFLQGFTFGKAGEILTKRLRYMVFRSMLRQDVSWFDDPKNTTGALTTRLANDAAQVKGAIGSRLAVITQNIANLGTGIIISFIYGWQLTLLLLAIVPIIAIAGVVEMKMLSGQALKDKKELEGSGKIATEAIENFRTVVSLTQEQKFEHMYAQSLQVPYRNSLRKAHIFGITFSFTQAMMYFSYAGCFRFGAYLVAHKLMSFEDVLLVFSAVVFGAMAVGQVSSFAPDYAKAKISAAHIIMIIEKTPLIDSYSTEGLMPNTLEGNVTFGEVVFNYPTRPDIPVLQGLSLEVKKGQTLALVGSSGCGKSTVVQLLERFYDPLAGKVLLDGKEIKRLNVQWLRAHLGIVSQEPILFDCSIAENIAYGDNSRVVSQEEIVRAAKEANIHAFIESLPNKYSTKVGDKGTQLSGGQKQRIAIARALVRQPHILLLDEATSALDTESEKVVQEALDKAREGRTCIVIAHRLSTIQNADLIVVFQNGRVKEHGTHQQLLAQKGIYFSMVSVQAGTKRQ

[6] = tested on: NCI/ADR-RES; assay: Induction of apoptosis in human MCF7ADR cells assessed as early apoptotic cells at 10 uM by Annexin V-FITC and propidium iodide staining based flow cytometry analysis (reference value: 3.87%); type: functional
[7] = tested on: NCI/ADR-RES; assay: Induction of cell cycle arrest in human MCF7ADR cells assessed as accumulation of cells at G2/M phase at 10 uM in presence of paclitaxel by propidium iodide staining based flow cytometry analysis; type: functional
[8] = tested on: NCI/ADR-RES; assay: Effect on ABCB1 expression in human MCF7ADR cells upto 15 uM by Western blotting analysis; type: functional, cell-based
[9] = tested on: NCI/ADR-RES; assay: Induction of paclitaxel mediated apoptosis in human MCF7ADR cells assessed as early apoptotic cells at 10 uM in presence of paclitaxel by Annexin V-FITC and propidium iodide staining based flow cytometry analysis (reference value: 3.87%); type: functional
[10] = tested on: NCI/ADR-RES; assay: Induction of paclitaxel mediated apoptosis in human MCF7ADR cells assessed as necrotic cells at 10 uM in presence of paclitaxel by Annexin V-FITC and propidium iodide staining based flow cytometry analysis (reference value: 3.14%); type: functional
[11] = tested on: MCF7; assay: Reversal of paclitaxel resistance in human MCF7 cells assessed as reduction in paclitaxel IC50 at 10 uM pretreated with compound for 4 hrs followed by paclitaxel addition and measured after 72 hrs by MTT assay (reference value: 2.60 +/- 0.36 nM); type: functional, cell-based
[12] = target: T2, ATP-dependent translocase ABCB1; assay: Binding affinity to ABCB1 (unknown origin) assessed as change in thermal stability at 200 uM by CETSA
[13] = tested on: NCI/ADR-RES; assay: Antiproliferative activity against human MCF7ADR cells incubated for 72 hrs by MTT assay; type: functional, cell-based
[14] = tested on: NCI/ADR-RES; assay: Reversal of paclitaxel resistance in human MCF7ADR cells assessed as reduction in paclitaxel IC50 at 5 uM pretreated with compound for 4 hrs followed by paclitaxel addition and measured after 72 hrs by MTT assay (reference value: 6.68 +/- 0.35 microM); type: functional, cell-based
[15] = tested on: NCI/ADR-RES; assay: Induction of paclitaxel mediated apoptosis in human MCF7ADR cells assessed as nuclear fragmentation at 10 uM in presence of paclitaxel by DAPI staining based assay; type: functional, cell-based
[16] = tested on: MCF7; assay: Reversal of paclitaxel resistance in human MCF7 cells assessed as reduction in paclitaxel IC50 at 5 uM pretreated with compound for 4 hrs followed by paclitaxel addition and measured after 72 hrs by MTT assay (reference value: 2.60 +/- 0.36 nM); type: functional, cell-based
[17] = tested on: NCI/ADR-RES; assay: Induction of apoptosis in human MCF7ADR cells assessed as late apoptotic cells at 10 uM by Annexin V-FITC and propidium iodide staining based flow cytometry analysis (reference value: 7.24%); type: functional
[18] = tested on: NCI/ADR-RES; assay: Induction of paclitaxel mediated apoptosis in human MCF7ADR cells assessed as reduction in nuclei size at 10 uM in presence of paclitaxel by DAPI staining based assay; type: functional, cell-based
[19] = tested on: NCI/ADR-RES; assay: Reversal of paclitaxel resistance in human MCF7ADR cells at 10 uM; type: functional, cell-based
[20] = tested on: NCI/ADR-RES; assay: Induction of DNA damage in human MCF7ADR cells at 10 nM by comet assay; type: functional, cell-based
[21] = tested on: MCF7; assay: Antiproliferative activity against human MCF7 cells assessed as survival rate at 5 uM incubated for 72 hrs by MTT assay; type: functional; settings: read-out: Survival
[22] = tested on: MCF7; assay: Reversal of paclitaxel resistance in human MCF7 cells assessed as reversal fold by measuring ratio of paclitaxel IC50 to paclitaxel IC50 in presence of test compound at 5 uM incubated for 72 hrs by MTT assay; type: functional
[23] = Cytotoxicity against human GES1 cells assessed as cell viability at 10 uM; type: toxicity, cell-based; settings: read-out: Activity
[24] = tested on: NCI/ADR-RES; assay: Induction of paclitaxel mediated apoptosis in human MCF7ADR cells assessed as late apoptotic cells at 10 uM in presence of paclitaxel by Annexin V-FITC and propidium iodide staining based flow cytometry analysis (reference value: 7.24%); type: functional
[25] = tested on: NCI/ADR-RES; assay: Induction of paclitaxel mediated DNA damage in human MCF7ADR cells at 10 uM in presence of paclitaxel by comet assay; type: functional, cell-based
[26] = tested on: NCI/ADR-RES; assay: Antiproliferative activity against human MCF7ADR cells assessed as survival rate at 5 uM incubated for 72 hrs by MTT assay; type: functional; settings: read-out: Survival
[27] = tested on: NCI/ADR-RES; assay: Inhibition of colony formation in human MCF7ADR cells at 10 uM incubated for 7 days in presence of paclitaxel by crystal violet staining based assay; type: functional, cell-based; settings: time 7.0 day
[28] = tested on: MCF7; assay: Antiproliferative activity against human MCF7 cells incubated for 72 hrs by MTT assay; type: functional, cell-based; settings: MCF7, 72 h
[29] = target: T1, Tubulin (Homo sapiens); assay: Induction of paclitaxel mediated tubulin […] in human MCF7ADR cells assessed as appearance of filamentous microtubules at 10 uM incubated for 72 hrs in presence of paclitaxel; type: cell-based; settings: filed as activator
[30] = tested on: NCI/ADR-RES; assay: Effect on subcellular localization of ABCB1 in human MCF7ADR cells at 10 uM incubated for 48 hrs by DAPI staining based assay; type: functional, cell-based
[31] = tested on: MCF7; assay: Reversal of paclitaxel resistance in human MCF7 cells assessed as reversal fold by measuring ratio of paclitaxel IC50 to paclitaxel IC50 in presence of test compound at 10 uM incubated for 72 hrs by MTT assay; type: functional
[32] = Cytotoxicity against HEK293T cells assessed as cell viability at 10 uM; type: toxicity, cell-based, HEK-293T; settings: human, read-out: Activity
[33] = tested on: NCI/ADR-RES; assay: Induction of apoptosis in human MCF7ADR cells assessed as viable cells at 10 uM by Annexin V-FITC and propidium iodide staining based flow cytometry analysis (reference value: 85.75%); type: functional; settings: read-out: Activity
[34] = tested on: MCF7; assay: Reversal of paclitaxel resistance in human MCF7 cells; type: functional, cell-based
[35] = tested on: NCI/ADR-RES; assay: Reversal of paclitaxel resistance in human MCF7ADR cells assessed as reversal fold by measuring ratio of paclitaxel IC50 to paclitaxel IC50 in presence of test compound at 5 uM incubated for 72 hrs by MTT assay; type: functional
[36] = tested on: NCI/ADR-RES; assay: Reversal of paclitaxel resistance in human MCF7ADR cells assessed as reduction in paclitaxel IC50 at 10 uM pretreated with compound for 4 hrs followed by paclitaxel addition and measured after 72 hrs by MTT assay (reference value: 6.68 +/- 0.35 microM); type: functional, cell-based
[37] = tested on: NCI/ADR-RES; assay: Induction of DNA damage in human MCF7ADR cells at 10 uM by comet assay; type: functional, cell-based
[38] = tested on: NCI/ADR-RES; assay: Induction of paclitaxel mediated apoptosis in human MCF7ADR cells assessed as viable cells at 10 uM in presence of paclitaxel by Annexin V-FITC and propidium iodide staining based flow cytometry analysis (reference value: 85.75%); type: functional; settings: read-out: Activity
[39] = tested on: NCI/ADR-RES; assay: Inhibition of cell proliferation in human MCF7ADR cells assessed as reduction in cellular proliferation cells at 10 uM in presence of paclitaxel by EdU staining based assay; type: functional
[40] = target: T1, Tubulin (Homo sapiens); assay: Induction of paclitaxel mediated tubulin […] in human MCF7ADR cells assessed as appearance of cellular multinucleation at 10 uM incubated for 72 hrs in presence of paclitaxel; type: cell-based; settings: filed as activator
[41] = Cytotoxicity against HUVECs assessed as cell viability at 10 uM; type: toxicity, cell-based; settings: human, HUVEC cells, read-out: Activity

SMILES: COc1cc(-c2c(C)nc3cc(-c4cccs4)nn3c2-c2cc(OC)c(OC)c(OC)c2)cc(OC)c1OC
- Activity [1]: 1.44%
- inhibition [2]: inactive
- CI [3]: 0.09
- Ratio [4]: 663.44
- Activity [5]: Active
- Activity [6]: 6.17%
- Activity [7]: Active
- Activity [8]: inactive
- Activity [9]: 13.87%
- Activity [10]: 4.28%
- IC50 [11]: 2.65 nM
- Activity [12]: Active
- IC50 [13]: > 20000 nM
- IC50 [14]: 27 nM
- Activity [15]: Active
- IC50 [16]: 2.96 nM
- Activity [17]: 7.98%
- Activity [18]: Active
- Activity [19]: Active
- Activity [20]: Active
- viability at 5 µM [21]: 97.7%
- Ratio [22]: 0.88
- viability at 10 µM [23]: > 80%
- Activity [24]: 29.54%
- Activity [25]: Active
- viability at 5 µM [26]: 95%
- inhibition [27]: Active
- IC50 [28]: > 20000 nM
- Activity [29]: Active
- Activity [30]: inactive
- Ratio [31]: 0.98
- viability at 10 µM [32]: > 80%
- viability at 10 µM [33]: 84.4%
- Activity [34]: inactive
- Ratio [35]: 247.4
- IC50 [36]: 10.1 nM
- Activity [37]: Active
- viability at 10 µM [38]: 52.3%
- inhibition [39]: Active
- Activity [40]: Active
- viability at 10 µM [41]: > 80%
